Patent US11884661B2, “3-substituted propionic acids as αV integrin inhibitors” (BRISTOL-MYERS SQUIBB COMPANY, priority 2016, dated 2024)

Biological target: T1, human αVβ6 (Homo sapiens, UniProt P06756+P18564)
T1 construct: purchased R & D systems 3817-AV
Test: human αVβ6 HTRF binding assay
Settings: recombinant human αVβ6 integrin, FITC-conjugated fibronectin
Description: All binding assays used the HTRF (homogeneous time resolved fluorescence) technology from Cisbio International, therefore all assays are described as HTRF binding assays. The assay results for the Examples are listed above together with the characterization data. The HTRF binding assays are established for the following integrins: human αVβ6, human αVβ1, human αVβ3, human αVβ5, and human αVβ8. All assays used the following assay buffer: 20 mM Tris, pH 7.4, 1 mM MgCl2, 1 mM MnCl2, 0.01% Tween 20, and 0.01% BSA. Alternatively, a SPA-based assay was used for evaluation of receptor binding.
The following describes the components and a representative procedure for the human αVβ6 HTRF binding assay: Recombinant human αVβ6 Integrin (R & D systems, 3817-AV) was biotinylated. Biotinylated human αVβ6 Integrin was added to assay vessel at a final concentration of 1.25 nM. FITC-conjugated fibronectin (Cytoskeleton, FNR02) was then added at the final concentration of 5 nM. The mixture was centrifuged at 600 rpm for three minutes using Thermo Fisher Heraeus Multifuge X3 centrifuge and then incubated at RT for an hour. Streptavidin Terbium (Cisbio international 610STLB) was then added at the final concentration of 0.625 nM. The resulting mixture was centrifuged at 600 rpm for three minutes using Thermo Fisher Heraeus Multifuge X3 centrifuge and then incubated at room temperature overnight in dark before reading HTRF signals.

T1 sequence (P06756 31-992 limits assumed): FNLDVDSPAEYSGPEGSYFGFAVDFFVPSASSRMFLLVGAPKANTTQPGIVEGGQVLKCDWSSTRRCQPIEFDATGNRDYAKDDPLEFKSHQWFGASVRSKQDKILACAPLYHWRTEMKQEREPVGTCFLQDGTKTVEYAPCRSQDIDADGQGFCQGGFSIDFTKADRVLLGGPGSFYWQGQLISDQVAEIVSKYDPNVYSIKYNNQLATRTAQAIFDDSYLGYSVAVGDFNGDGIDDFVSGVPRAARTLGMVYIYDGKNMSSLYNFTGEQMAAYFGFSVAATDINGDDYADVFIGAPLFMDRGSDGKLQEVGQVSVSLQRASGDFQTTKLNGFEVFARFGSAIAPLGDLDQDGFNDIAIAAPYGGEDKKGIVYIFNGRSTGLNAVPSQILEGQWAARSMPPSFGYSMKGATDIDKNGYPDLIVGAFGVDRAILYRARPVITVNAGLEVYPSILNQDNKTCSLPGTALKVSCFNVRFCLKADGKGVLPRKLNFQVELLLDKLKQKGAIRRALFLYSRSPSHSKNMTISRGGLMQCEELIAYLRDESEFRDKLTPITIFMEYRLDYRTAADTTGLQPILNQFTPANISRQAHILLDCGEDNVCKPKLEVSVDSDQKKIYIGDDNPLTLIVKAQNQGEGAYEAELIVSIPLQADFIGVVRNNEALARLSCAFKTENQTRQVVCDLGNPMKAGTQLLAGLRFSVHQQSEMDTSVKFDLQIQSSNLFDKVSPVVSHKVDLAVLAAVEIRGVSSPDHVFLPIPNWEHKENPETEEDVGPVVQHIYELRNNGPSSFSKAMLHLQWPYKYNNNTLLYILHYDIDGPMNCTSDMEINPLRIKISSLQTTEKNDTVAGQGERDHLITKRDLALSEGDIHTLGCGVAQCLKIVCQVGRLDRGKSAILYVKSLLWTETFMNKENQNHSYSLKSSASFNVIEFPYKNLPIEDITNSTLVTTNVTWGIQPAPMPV
T1 sequence (P18564 22-707 limits assumed): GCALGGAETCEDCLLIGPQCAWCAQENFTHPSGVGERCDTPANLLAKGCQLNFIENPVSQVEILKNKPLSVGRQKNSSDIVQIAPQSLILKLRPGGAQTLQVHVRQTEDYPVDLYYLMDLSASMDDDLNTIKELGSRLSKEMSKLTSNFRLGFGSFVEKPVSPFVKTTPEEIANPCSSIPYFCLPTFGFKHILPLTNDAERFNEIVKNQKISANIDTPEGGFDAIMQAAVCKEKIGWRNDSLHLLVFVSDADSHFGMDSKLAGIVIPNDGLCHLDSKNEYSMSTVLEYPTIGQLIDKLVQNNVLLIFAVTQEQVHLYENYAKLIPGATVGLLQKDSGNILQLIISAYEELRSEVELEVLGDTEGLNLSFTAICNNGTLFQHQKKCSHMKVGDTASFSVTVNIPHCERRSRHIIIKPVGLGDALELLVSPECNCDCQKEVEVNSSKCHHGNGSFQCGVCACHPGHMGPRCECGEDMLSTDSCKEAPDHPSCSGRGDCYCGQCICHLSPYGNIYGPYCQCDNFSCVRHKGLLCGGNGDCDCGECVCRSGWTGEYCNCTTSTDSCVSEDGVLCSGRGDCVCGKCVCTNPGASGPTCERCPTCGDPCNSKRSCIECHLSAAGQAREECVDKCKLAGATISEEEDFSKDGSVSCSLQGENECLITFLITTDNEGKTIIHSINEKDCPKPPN

Cc1ncc(C(CC(=O)O)n2nccc2CCC[C@@H]2CCc3cccnc3N2)cn1 (mixture of isomers) [Example 91, 3-(2-methylpyrimidin-5-yl)-3-(5-(3-((R)-1,2,3,4-tetrahydro-1,8-naphthyridin-2-yl)propyl)-1H-pyrazol-1-yl)propanoic acid]
IC50: 1400 nM

COc1ncc(C(CC(=O)O)n2nccc2CCC[C@H]2CCc3cccnc3N2)cn1 (mixture of isomers) [Example 92, 3-(2-methoxypyrimidin-5-yl)-3-(5-(3-((S)-1,2,3,4-tetrahydro-1,8-naphthyridin-2-yl)propyl)-1H-pyrazol-1-yl)propanoic acid]
IC50: 6700 nM

COc1ncc(C(CC(=O)O)n2nccc2CCC[C@@H]2CCc3cccnc3N2)cn1 (mixture of isomers) [Example 93, 3-(2-methoxypyrimidin-5-yl)-3-(5-(3-((R)-1,2,3,4-tetrahydro-1,8-naphthyridin-2-yl)propyl)-1H-pyrazol-1-yl)propanoic acid]
IC50: 1030 nM

O=C(NC(Cc1cnn(CCc2ccc3c(n2)NCCC3)c1)C(=O)O)OCc1ccccc1 (racemic) [Example 5, (±)-2-(((Benzyloxy)carbonyl)amino)-3-(1-(2-(5,6,7,8-tetrahydro-1,8-naphthyridin-2-yl)ethyl)-1H-pyrazol-4-yl)propanoic acid]
IC50: 5000 nM

O=C(NC(Cc1cnn(CCCc2ccc3c(n2)NCCC3)c1)C(=O)O)OCc1ccccc1 (racemic) [Example 6, (±)-2-(((Benzyloxy)carbonyl)amino)-3-(1-(3-(5,6,7,8-tetrahydro-1,8-naphthyridin-2-yl)propyl)-1N-pyrazol-4-yl)propanoic acid]
IC50: 80 nM

COc1ccc(C(CC(=O)O)c2cnn(CCCc3ccc4c(n3)NCCC4)c2)cn1 (racemic) [Example 7, (±)-3-(6-Methoxypyridin-3-yl)-3-(1-(3-(5,6,7,8-tetrahydro-1,8-naphthyridin-2-yl)propyl)-1H-pyrazol-4-yl)propanoic acid]
IC50: 323 nM

COc1ccc(C(CC(=O)O)c2cc(CCCc3ccc4c(n3)NCCC4)c[nH]2)cc1F (racemic) [Example 10, (±)-3-(3-Fluoro-4-methoxyphenyl)-3-(4-(3-(5,6,7,8-tetrahydro-1,8-naphthyridin-2-yl)propyl)-1H-pyrrol-2-yl)propanoic acid]
IC50: 136 nM

COc1ccc(C(CC(=O)O)c2cnn(CCCCc3ccc4c(n3)NCCC4)c2)cn1 (racemic) [Example 11, (±)-3-(6-Methoxypyridin-3-yl)-3-(1-(4-(5,6,7,8-tetrahydro-1,8-naphthyridin-2-yl)butyl)-1H-pyrazol-4-yl)propanoic acid]
IC50: 100 nM

Cc1ncc(C(CC(=O)O)n2ccc(CCCc3ccc4c(n3)NCCC4)n2)cn1 (racemic) [Example 22, (±)-3-(2-Methylpyrimidin-5-yl)-3-(3-(3-(5,6,7,8-tetrahydro-1,8-naphthyridin-2-yl)propyl)-1H-pyrazol-1-yl)propanoic acid]
IC50: 64 nM

CCCCOC(=O)NC(Cc1cnn(CCc2ccc3c(n2)NCCC3)c1)C(=O)O (racemic) [Example 23, (±)-2-((Butoxycarbonyl)amino)-3-(1-(2-(5,6,7,8-tetrahydro-1,8-naphthyridin-2-yl)ethyl)-1H-pyrazol-4-yl)propanoic acid]
IC50: 1020 nM

COc1ccc(C(CC(=O)O)c2cnn(CCCc3ccc4c(n3)NCCC4)c2)cc1F (racemic) [Example 24, (±)-3-(3-Fluoro-4-methoxyphenyl)-3-(1-(3-(5,6,7,8-tetrahydro-1,8-naphthyridin-2-yl)propyl)-1H-pyrazol-4-yl)propanoic acid]
IC50: 117 nM

Cc1cc(C)c(S(=O)(=O)NC(Cc2cnn(CCCc3ccc4c(n3)NCCC4)c2)C(=O)O)c(C)c1 (racemic) [Example 25, (±)-3-(1-(3-(5,6,7,8-Tetrahydro-1,8-naphthyridin-2-yl)propyl)-1H-pyrazol-4-yl)-2-((2,4,6-trimethylphenyl)sulfonamido)propanoic acid]
IC50: 395 nM

O=C(O)CC(c1cc(Cl)cc(Cl)c1)c1cnn(CCCc2ccc3c(n2)NCCC3)c1 (racemic) [Example 26, (±)-3-(3,5-Dichlorophenyl)-3-(1-(3-(5,6,7,8-tetrahydro-1,8-naphthyridin-2-yl)propyl)-1H-pyrazol-4-yl)propanoic acid]
IC50: 27 nM

O=C(O)CC(c1cnc2ccccc2n1)n1ccc(CCCc2ccc3c(n2)NCCC3)n1 (racemic) [Example 28, (±)-3-(Quinoxalin-2-yl)-3-(3-(3-(5,6,7,8-tetrahydro-1,8-naphthyridin-2-yl)propyl)-1H-pyrazol-1-yl)propanoic acid]
IC50: 5500 nM

O=C(O)CC(c1cnc2nccnc2c1)n1ccc(CCCc2ccc3c(n2)NCCC3)n1 (racemic) [Example 33, (±)-3-(Pyrido[2,3-b]pyrazin-7-yl)-3-(3-(3-(5,6,7,8-tetrahydro-1,8-naphthyridin-2-yl)propyl)-1H-pyrazol-1-yl)propanoic acid]
IC50: 2800 nM

COc1ncc(C(CC(=O)O)n2ccc(CCCc3ccc4c(n3)NCCC4)n2)cn1 (racemic) [Example 34, (±)-3-(2-Methoxypyrimidin-5-yl)-3-(3-(3-(5,6,7,8-tetrahydro-1,8-naphthyridin-2-yl)propyl)-1H-pyrazol-1-yl)propanoic acid]
IC50: 10 nM

O=C(O)CC(c1cnc2c(c1)OCCO2)n1ccc(CCCc2ccc3c(n2)NCCC3)n1 (racemic) [Example 35, (±)-3-(2,3-Dihydro-[1,4]dioxino[2,3-b]pyridin-7-yl)-3-(3-(3-(5,6,7,8-tetrahydro-1,8-naphthyridin-2-yl)propyl)-1H-pyrazol-1-yl)propanoic acid]
IC50: 17 nM

COc1ccc(C(CC(=O)O)n2ccc(CCCc3ccc4c(n3)NCCC4)n2)cc1F (racemic) [Example 49, (±)-3-(3-Fluoro-4-methoxyphenyl)-3-(3-(3-(5,6,7,8-tetrahydro-1,8-naphthyridin-2-yl)propyl)-1H-pyrazol-1-yl)propanoic acid]
IC50: 24 nM

O=C(O)CC(c1cnc(N2CCC2)nc1)n1ccc(CCCc2ccc3c(n2)NCCC3)n1 (racemic) [Example 50, (±)-3-(2-(Azetidin-1-yl)pyrimidin-5-yl)-3-(3-(3-(5,6,7,8-tetrahydro-1,8-naphthyridin-2-yl)propyl)-1H-pyrazol-1-yl)propanoic acid]
IC50: 6.4 nM

O=C(O)CC(c1cnc(N2CCC2)nc1)n1nccc1CCCc1ccc2c(n1)NCCC2 (racemic) [Example 53, (±)-3-(2-(Azetidin-1-yl)pyrimidin-5-yl)-3-(5-(3-(5,6,7,8-tetrahydro-1,8-naphthyridin-2-yl)propyl)-1H-pyrazol-1-yl)propanoic acid]
IC50: 140 nM

COc1ccc(C(CC(=O)O)n2ccc(CCCc3ccc4c(n3)NCCC4)n2)nn1 (racemic) [Example 57, (±)-3-(6-Methoxypyridazin-3-yl)-3-(3-(3-(5,6,7,8-tetrahydro-1,8-naphthyridin-2-yl)propyl)-1H-pyrazol-1-yl)propanoic acid]
IC50: 51 nM

COc1ccc(C(CC(=O)O)n2nccc2CCCc2ccc3c(n2)NCCC3)nn1 (racemic) [Example 58, (±)-3-(6-Methoxypyridazin-3-yl)-3-(5-(3-(5,6,7,8-tetrahydro-1,8-naphthyridin-2-yl)propyl)-1H-pyrazol-1-yl)propanoic acid]
IC50: 2100 nM

COc1cnc(C(CC(=O)O)n2ccc(CCCc3ccc4c(n3)NCCC4)n2)cn1 (racemic) [Example 59, (±)-3-(5-Methoxypyrazin-2-yl)-3-(3-(3-(5,6,7,8-tetrahydro-1,8-naphthyridin-2-yl)propyl)-1H-pyrazol-1-yl)propanoic acid]
IC50: 110 nM

COc1cnc(C(CC(=O)O)n2nccc2CCCc2ccc3c(n2)NCCC3)cn1 (racemic) [Example 60, (±)-3-(5-Methoxypyrazin-2-yl)-3-(5-(3-(5,6,7,8-tetrahydro-1,8-naphthyridin-2-yl)propyl)-1H-pyrazol-1-yl)propanoic acid]
IC50: 500 nM

COc1ccc(C(CC(=O)O)n2cc(CCCCc3ccc4c(n3)NCCC4)cn2)cn1 (racemic) [Example 61, (±)-3-(6-Methoxypyridin-3-yl)-3-(4-(4-(5,6,7,8-tetrahydro-1,8-naphthyridin-2-yl)butyl)-1H-pyrazol-1-yl)propanoic acid]
IC50: 56 nM

COc1ccc(C(CC(=O)O)n2cc(CCCc3ccc4c(n3)NCCC4)cn2)cn1 (racemic) [Example 62, (±)-3-(6-Methoxypyridin-3-yl)-3-(4-(3-(5,6,7,8-tetrahydro-1,8-naphthyridin-2-yl)propyl)-1H-pyrazol-1-yl)propanoic acid]
IC50: 170 nM

O=C(O)CC(c1cncc(N2CCCC2)c1)n1ccc(CCCc2ccc3c(n2)NCCC3)n1 (racemic) [Example 66, (±)-3-[5-(pyrrolidin-1-yl)pyridin-3-yl]-3-{3-[3-(5,6,7,8-tetrahydro-1,8-naphthyridin-2-yl)propyl]-1H-pyrazol-1-yl}propanoic acid]
IC50: 21 nM

COc1ccc(C(CC(=O)O)n2nccc2CCCc2ccc3c(n2)NCCC3)cc1F (racemic) [Example 71, (±)-3-(3-fluoro-4-methoxyphenyl)-3-{5-[3-(5,6,7,8-tetrahydro-1,8-naphthyridin-2-yl)propyl]-1H-pyrazol-1-yl}propanoic acid]
IC50: 15 nM
